Series [1] is described as follows: Molar enthalpy of transition or fusion. The note with it: Crystal; DSC.
The conditions of series [2]: Crystal; DTA.

± gives the expanded uncertainty stated by the source.

Results on four molecules are retold here after the NIST ThermoML archive (doi:10.1016/j.fluid.2015.10.016).

As to `CCCC[N+]1(C)CCCC1.N#C[B-](C#N)(C#N)C#N` [1-butyl-1-methylpyrrolidinium tetracyanoborate], in series [1], the “Molar enthalpy of transition or fusion” value was 4.97 ± 0.117 kcal/mol. For the same molecule, the Normal melting temperature in series [2] is 19.7 ± 0.4 °C.
As for `CCCC[N+]1(C)CCCC1.N#CC(=C=[N-])C#N` [1-butyl-1-methylpyrrolidinium tricyanomethanide], the “Molar enthalpy of transition or fusion” value in series [1] came out at 2.25 ± 0.0789 kcal/mol. Also, in series [2], the Normal melting temperature was -8.8 ± 0.4 °C.
On the same counts, the results for `CCCC[N+]1(C)CCCC1.O=S(=O)([O-])C(F)(F)F` [1-butyl-1-methylpyrrolidinium trifluoromethanesulfonate] are 2.88 ± 0.0908 kcal/mol and -0.2 ± 0.4 °C.
`OCCc1ccccc1` [2-phenylethanol]: the “Molar enthalpy of transition or fusion” value in series [1] stood at 2.31 ± 0.0956 kcal/mol. The Normal melting temperature in series [2] was -27 ± 1 °C.
